Data set [1] deals with T1, human dopamine D3 receptors (Homo sapiens, UniProt P35462).
T1 construct: expressed in transfected cells
As to the kind of experiment: Dopamine D3 receptor binding assay ([3H]spiperone, CHO cell membranes). The conditions noted are these: for Ki: human D3 receptors in CHO cells, 0.2 nM [3H]spiperone, mean ± SEM, read-out: Affinity Ki (D3); for Selectivity Ki(D2)/Ki(D3): ratio of Ki(D2) to Ki(D3). An outline of the steps:
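CHO cell membranes expressing human D3 incubated with 0.2 nM [3H]spiperone in Tris-HCl pH 7.4 with 120 mM NaCl, 5 mM KCl, 2 mM CaCl2, 1 mM MgCl2 at 25° C for 120 min; nonspecific binding with 10 μM BP 897. Filtration read-out; seven concentrations in triplicate, Ki via Cheng-Prusoff.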

The target in data set [2] is T2, recombinant human D2(short) dopamine receptor (Homo sapiens, UniProt P14416).
T2 construct: expressed in transfected cells; host or cells: CHO-D2S cells (per Hayes et al. 1992)
The experiment in a line: Dopamine D2S receptor binding assay ([3H]spiperone, CHO cell membranes). As to conditions: human D2S receptors in CHO cells, 0.2 nM [3H]spiperone, mean ± SEM; read-out: Affinity Ki (D2). The gist of the method: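 Membranes from CHO cells expressing human D2S receptor, incubated with 0.2 nM [3H]spiperone in Tris-HCl pH 7.4 with NaCl, KCl, CaCl2, MgCl2, 120 min at 25 °C; nonspecific binding with 10 μM BP 897. Filtration and scintillation counting; seven concentrations in triplicate, Ki from IC50 by Cheng-Prusoff, mean±SEM.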

Data set [3] relates to 6-OHDA-lesioned rat model of Parkinson's disease. The experiment in a line: Rotational behaviour in 6-OHDA-lesioned rat model of Parkinson's disease. It counts as in vivo. The conditions noted are these: for short or long acting in vivo / onset of action: in vivo model; for onset and persistence of activity: following oral or intra-peritoneal application, FIGS. 12, 16, 17. How it is done: Preparation of 6-OHDA-Lesioned Rat Model of Parkinson's Disease
Male Sprague-Dawley rats weighing 290-350 g were used. The rats were housed in a temperature-controlled room under a 12 hour light/dark cycle with free access to food and water. Thirty minutes prior to surgery, the animals were given the monoamine oxidase-B inhibitor pargyline (5 mg/kg i.p.;) and the noradrenaline uptake inhibitor desipramine (25 mg/kg i.p.). The rats were then placed under general anaesthesia (Flourothane) and immobilised in stereotaxic frame. Following reflection of cranial skin and periostium, a small bur-hole was made in the skull on the right side and a small puncture was made in the dura mater. Each animal then received a unilateral injection of 2.5 μl of the neurotoxin 6-hydroxydopamine hydrobromide (6-OHDA HBr; 5 mg/ml in sterile water with 0.1% ascorbic acid; i.e. 12.5 μg 6-OHDA per rat) into the right medial forebrain bundle at stereotaxic co-ordinates −2.8 mm from bregma, 2 mm lateral to the midline, and 9 mm below the skull. The 6-OHDA injection was made over a 5 minute period using a 5 μl Hamilton syringe. The rats were allowed to recover for 3 weeks following the lesion. Animals then received 0.05 mg/kg s.c. apomorphine to assess the extent of lesion. Animals displaying clear rotational behaviour directed contralateral to the lesioned side were selected for further studies.
Only lesioned animals were used in the study (as determined by apomorphine rotation).
Animals were administered a dose of the test compound at 1 mg/kg or 3 mg/kg (i.p.) and rotational behaviour was assessed for up to 4 hours following drug administration using automated rotometers. Alternatively, animals were administered a dose of the test compound at 10 mg/kg (p.o.) and rotational behaviour was assessed for up to 8 hours following drug administration using automated rotometers.
Each compound was administered to at least 5 rats.
Total net rotational activity. This parameter is calculated as the total number of 180° rotations (net contralateral) over the duration of the experiment.
Data were analysed independently for each novel compound with appropriate parametric statistics. All tests were carried out in Graphpad Prism Version 3.

For data set [4] the following is noted: patients treated with pramipexole; cited from earlier work.

Structures can show the parent of a compound that is named as a salt.

T1 sequence (P35462 whole entry): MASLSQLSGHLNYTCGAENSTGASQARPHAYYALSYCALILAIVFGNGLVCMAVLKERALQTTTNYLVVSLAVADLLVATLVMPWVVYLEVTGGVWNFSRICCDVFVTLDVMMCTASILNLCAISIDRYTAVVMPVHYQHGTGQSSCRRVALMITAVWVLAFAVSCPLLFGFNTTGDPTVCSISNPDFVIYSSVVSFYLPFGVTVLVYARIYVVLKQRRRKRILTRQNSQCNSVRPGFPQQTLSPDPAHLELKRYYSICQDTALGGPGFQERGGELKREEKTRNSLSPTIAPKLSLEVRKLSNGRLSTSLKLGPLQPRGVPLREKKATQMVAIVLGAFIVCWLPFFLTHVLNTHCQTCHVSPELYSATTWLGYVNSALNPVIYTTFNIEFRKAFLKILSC
T2 sequence (P14416 1-414 isoform P14416-2): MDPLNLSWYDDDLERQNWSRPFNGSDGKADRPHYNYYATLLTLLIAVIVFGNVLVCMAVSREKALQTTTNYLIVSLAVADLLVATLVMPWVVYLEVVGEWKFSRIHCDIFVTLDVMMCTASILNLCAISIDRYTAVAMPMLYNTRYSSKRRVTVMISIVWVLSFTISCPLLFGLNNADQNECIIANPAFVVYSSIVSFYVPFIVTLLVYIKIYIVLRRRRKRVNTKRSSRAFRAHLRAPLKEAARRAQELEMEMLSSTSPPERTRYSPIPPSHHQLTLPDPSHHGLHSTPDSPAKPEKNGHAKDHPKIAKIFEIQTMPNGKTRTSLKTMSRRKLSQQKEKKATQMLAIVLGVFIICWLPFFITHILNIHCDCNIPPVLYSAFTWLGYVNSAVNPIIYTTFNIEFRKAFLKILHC

The term Ki denotes a measure of affinity in units of concentration, obtained from inhibition or displacement. `CCCN(CCCCC(=O)NC1Cc2ccccc2C1)C1CCc2ncsc2C1` (centres unmarked) [Compound 67, N-(2,3-dihydro-1H-inden-2-yl)-5-(propyl-(4,5,6,7-tetrahydrobenzothiazol-6-yl)amino)pentanamide]: in data set [1], the Ki was determined as 0.9 ± 0.05 nM and the “Selectivity Ki(D2)/Ki(D3)” value was found to be 1550. For the same compound, the Ki in data set [2] was determined as 1390 ± 304 nM. Further, the “short or long acting in vivo” value in data set [3] was “short acting”.
For `CCN(CCN(CC)C1CCc2ncsc2C1)C1CCc2ncsc2C1` (centres unmarked) [Compound 33, N,N′-Diethyl-N,N′-bis-(4,5,6,7-tetrahydro-benzothiazol-6-yl)-ethane-1,2-diamine], in data set [1], the Ki was 22.7 ± 13.5 nM and the “Selectivity Ki(D2)/Ki(D3)” value came to 19. Moreover, the Ki in data set [2] amounted to 468 ± 13.5 nM. The “onset and persistence of activity” value in data set [3] was “rapid onset of activity and also have a sustained effect”.
`CCCN(CCN1CCN(c2ccccc2OC)CC1)C1CCc2ncsc2C1` (centres unmarked) [Compound 34, {2-[4-(2-Methoxy-phenyl)-piperazin-1-yl]-ethyl}-propyl-(4,5,6,7-tetrahydro-benzothiazol-6-yl)-amine]: in data set [1], the Ki is 4.5 ± 0.7 nM and the “Selectivity Ki(D2)/Ki(D3)” value amounted to 29. In addition, the Ki in data set [2] was 132 ± 40 nM. Also, in data set [3], the “onset and persistence of activity” value was “rapid onset of activity and also have a sustained effect”; the onset of action entry is “fast acting”. Moreover, in data set [3] (i.p. at 1 and 3 mg/kg), the “action at increasing doses” value is given as “substantially constant action”.
As for `CCCN(CCCCNC(=O)N1CCc2ccccc2C1)C1CCc2ncsc2C1` (centres unmarked) [Compound 24, 3,4-Dihydro-1H-isoquinoline-2-carboxylic acid {4-[propyl-(4,5,6,7-tetrahydro-benzothiazol-6-yl)-amino]-butyl}-amide], the Ki in data set [1] stood at 3.95 ± 1.17 nM; in data set [2] it was 1560 ± 464 nM. Besides, in data set [1], the “Selectivity Ki(D2)/Ki(D3)” value amounted to 394. Further, the “short or long acting in vivo” value in data set [3] is “short acting”.
`CCCN[C@H]1CCc2nc(N)sc2C1` [pramipexole, (S)-2-amino-4,5,6,7-tetra-hydro-6-(propylamino)benzothiazole dihydrochloride mono-hydrate]: the “patients who may develop oedema” value in data set [4] is listed as 1-10%.
Consider `CCCN(CCCCC(=O)Nc1ccc2ccccc2c1)C1CCc2ncsc2C1` (centres unmarked) [Compound 9, 5-[Propyl-(4,5,6,7-tetrahydro-benzothiazol-6-yl)-amino]-pentanoic acid naphthalen-2-ylamide], for which, in data set [1], the Ki is 0.55 ± 0.19 nM and the “Selectivity Ki(D2)/Ki(D3)” value turned out to be 542. For the same compound, the Ki in data set [2] turned out to be 299 ± 38 nM. Besides, in data set [3], the onset of action result is given as “fast acting” and the “short or long acting in vivo” value is recorded as “short acting”.
As for `CCCN(CCN1CCN(C(=O)c2cccc3ccccc23)CC1)C1CCc2ncsc2C1` (centres unmarked) [Compound 39, [2-(4-Naphthoyl-piperazin-1-yl)-ethyl]-propyl-(4,5,6,7-tetrahydro-benzothiazol-6-yl)-amine], in data set [1], the Ki was 12.9 ± 3.8 nM and the “Selectivity Ki(D2)/Ki(D3)” value turned out to be 247. Also, the Ki in data set [2] was determined as 3180 ± 1730 nM. Besides, in data set [3], the onset of action result is listed as “fast acting” and the “short or long acting in vivo” value was “short acting”.
Turning to `CCCN(CCCCC(=O)NC12CC3CC(CC(C3)C1)C2)C1CCc2ncsc2C1` (centres unmarked) [Compound 68, N-Adamantanyl-5-(propyl-(4,5,6,7-tetrahydrobenzothiazol-6-yl)amino)pentanamide], in data set [1], the Ki stood at 1.54 ± 0.46 nM and the “Selectivity Ki(D2)/Ki(D3)” value came to 297. In data set [2], the Ki is 457 ± 228 nM. The “onset and persistence of activity” value in data set [3] was “sustained activity over a number of hours”.
The term melting point denotes the temperature, or range, at which the solid turns liquid. In turn, `CCCN(Cc1ccc(C(=O)NC2Cc3ccccc3C2)cc1)C1CCc2ncsc2C1` (centres unmarked) [Compound 44, N-Indan-2-yl-4-{[propyl-(4,5,6,7-tetrahydrobenzothiazol-6-yl)amino]methyl}benzamide] returned a melting point of 65 °C. Besides, in data set [1], the Ki turned out to be 836 ± 211 nM and the “Selectivity Ki(D2)/Ki(D3)” value was found to be 19. In data set [2], the Ki is 16100 ± 8850 nM.
Consider `CCCN(CCCCNC(=O)N1CCc2cc(OC)c(OC)cc2C1)C1CCc2ncsc2C1` (centres unmarked) [Compound 25, 6,7-Dimethoxy-3,4-dihydro-1H-isoquinoline-2-carboxylic acid {4-[propyl-(4,5,6,7-tetrahydro-benzothiazol-6-yl)-amino]-butyl}-amide], for which, in data set [1], the Ki came to 2.67 ± 1.32 nM and the “Selectivity Ki(D2)/Ki(D3)” value is 2850. The Ki in data set [2] came out at 7610 ± 1810 nM. Also, the “short or long acting in vivo” value in data set [3] is listed as “short acting”.

Source of the values: patent publication US8389555B2, “Medicaments” (Motac Neuroscience Limited, priority 2007, dated 2013).
